Test systems include A498 renal; EKVX NSCLC; HCT-15 colon; HT29 colon; K-562 leukemia; LOX IMVI melanoma; OVCAR-4 ovarian; SF-539 CNS; SK-MEL-5 melanoma; SR leukemia.
What all share (experiment): NCI anticancer screen, dose series, 48 h

Several values for one entry are separate records, joined by “and”; a condition that tells them apart may be missing. Identical values can stand only once.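 These data come from cells grown in 96-well plates and exposed to compound for 48 hours at five concentrations. GI50: concentration for 50% inhibition of growth. TGI denotes the concentration required for complete inhibition of growth.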

Take `O=c1c2c(no[n+]2[O-])c2ccccc2n1-c1ccccc1`: the TGI is 22.2 µM in the assay on A498 renal; 24.5 µM in the assay on EKVX NSCLC; 8.76 µM in the assay on HCT-15 colon; 15.5 µM in the assay on HT29 colon; > 46.4 µM in the assay on K-562 leukemia; 7.28 µM in the assay with LOX IMVI melanoma. The TGI is > 46.4 µM in the assay with OVCAR-4 ovarian, 16 µM in the assay with SF-539 CNS, 20 µM in the assay with SK-MEL-5 melanoma and > 27.3 µM in the assay with SR leukemia.
For `O=C1CSC2(CC(/C=C/c3cccs3)=NN2c2cccc(S(=O)(=O)O)c2)N1c1nc2ccccc2s1` (configuration not stated), the TGI in the assay on A498 renal was 92.7 µM; in the assay on EKVX NSCLC, > 100 µM; in the assay on HCT-15 colon, > 100 µM; in the assay with HT29 colon it was > 100 µM; with K-562 leukemia, > 100 µM; in the assay with LOX IMVI melanoma, > 100 µM. The TGI in the assay on OVCAR-4 ovarian, in the assay with SF-539 CNS, in the assay with SK-MEL-5 melanoma and in the assay on SR leukemia was > 100 µM each time.
Consider `c1ccc(C2=NOC(c3ccccc3)N2C23CC4CC(CC(C4)C2)C3)cc1` (configuration not stated), for which the TGI in the assay on A498 renal, in the assay with EKVX NSCLC, in the assay with HCT-15 colon, in the assay with HT29 colon, in the assay on K-562 leukemia and with LOX IMVI melanoma was > 10 µM in each case. In addition, the TGI with OVCAR-4 ovarian, with SF-539 CNS, in the assay on SK-MEL-5 melanoma and with SR leukemia was > 10 µM each time.
For the compound `Cc1cc(C)nc(NC(=S)Nc2ccc([N+](=O)[O-])cc2)c1`, the TGI in the assay with A498 renal, in the assay on EKVX NSCLC, in the assay with HCT-15 colon, in the assay with HT29 colon, in the assay with K-562 leukemia and in the assay on LOX IMVI melanoma was > 100 µM each time. For the same compound, the TGI in the assay on OVCAR-4 ovarian, with SF-539 CNS, with SK-MEL-5 melanoma and with SR leukemia was > 100 µM throughout.
Regarding `CCN(C(=O)N[C@@H](C)C(=O)N[C@@H](Cc1ccccc1)C(=O)OC)c1ccccc1`, the TGI with A498 renal, with EKVX NSCLC, in the assay on HCT-15 colon, in the assay with HT29 colon, in the assay with K-562 leukemia and in the assay with LOX IMVI melanoma was > 100 µM in each case. The TGI in the assay with OVCAR-4 ovarian, in the assay with SF-539 CNS, in the assay on SK-MEL-5 melanoma and with SR leukemia was > 100 µM in each case.
Consider `CC(C)Oc1cccc(N2C(=NCc3c[nH]c4ccccc34)Nc3ccncc3S2(=O)=O)c1`, for which the TGI was > 100 µM with A498 renal; 79 µM with EKVX NSCLC; > 100 µM in the assay on HCT-15 colon; > 100 µM in the assay with HT29 colon; > 100 µM with K-562 leukemia; > 100 µM with LOX IMVI melanoma. Also, the TGI was > 100 µM with OVCAR-4 ovarian, > 100 µM in the assay with SF-539 CNS, 27.7 µM in the assay on SK-MEL-5 melanoma and > 100 µM in the assay on SR leukemia.
For the compound `OCCCc1ccc2c(c1)[C@H](CO)[C@@H](c1ccc(O)cc1)O2`, the TGI with A498 renal, in the assay on EKVX NSCLC, with HCT-15 colon, in the assay on HT29 colon, in the assay with K-562 leukemia and with LOX IMVI melanoma was > 100 µM throughout. Besides, the TGI with OVCAR-4 ovarian is 30.4 µM; in the assay on SF-539 CNS it was > 100 µM; in the assay with SK-MEL-5 melanoma it was 32.7 µM; in the assay on SR leukemia it was > 100 µM.
With `O=C(O)C(O)C(O)C(O)C(O)CO` (configuration not stated), the TGI in the assay with A498 renal, in the assay on EKVX NSCLC, in the assay on HCT-15 colon, with HT29 colon, in the assay with K-562 leukemia and in the assay on LOX IMVI melanoma was > 100 µM each time. Moreover, the TGI with OVCAR-4 ovarian, in the assay with SF-539 CNS, in the assay with SK-MEL-5 melanoma and with SR leukemia was > 100 µM in each case.
Regarding `CCN(CC)c1ccc(/C=C/c2ccnc3ccccc23)cc1`, the TGI with A498 renal, in the assay on EKVX NSCLC, in the assay on HCT-15 colon, with HT29 colon, in the assay on K-562 leukemia and with LOX IMVI melanoma was > 100 µM each time. In addition, the TGI in the assay on OVCAR-4 ovarian, with SF-539 CNS, with SK-MEL-5 melanoma and in the assay with SR leukemia was > 100 µM each time.
For `Cc1ccc(/C=C2/N=C(N/N=C\C(O)C(O)C(O)C(O)CO)NC2=O)cc1` (configuration not stated), the TGI in the assay with A498 renal, in the assay on EKVX NSCLC, with HCT-15 colon, in the assay with HT29 colon, in the assay on K-562 leukemia and in the assay with LOX IMVI melanoma was > 100 µM throughout. Moreover, the TGI in the assay with OVCAR-4 ovarian, in the assay on SF-539 CNS, in the assay with SK-MEL-5 melanoma and in the assay with SR leukemia was > 100 µM each time. Also, the GI50 was > 100 µM in the assay on K-562 leukemia; 85.1 µM and > 100 µM and 39.2 µM with OVCAR-4 ovarian.
